Patent publication US9695155B2, “Herbicidal substituted pyrimidinyloxy benzene compounds” (E. I. DU PONT DE NEMOURS AND COMPANY, priority 2013, dated 2017)

Legend:
kochia [1] = assay: Test E preemergence; format: in vivo, Kochia scoparia; conditions: for Kochia plant response rating: scale 0 to 100 (0 no effect, 100 complete control); for Plant response rating, Kochia: scale 0 to 100, 0 no effect, 100 complete control
In short: (§1)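 Compound in a non-phytotoxic solvent mixture with surfactant was applied preemergence to seeds in silt loam soil, or postemergence to plants 2 to 18 cm tall grown in peat-based potting medium. Plants were kept in a greenhouse for 14 to 21 days, then rated visually against untreated controls on a 0 (no effect) to 100 (complete control) scale.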

nightshade = assay: Test E preemergence; format: in vivo, Solanum ptycanthum; conditions: for Nightshade plant response rating: scale 0 to 100 (0 no effect, 100 complete control); for Plant response rating, Nightshade: scale 0 to 100, 0 no effect, 100 complete control
In short: as §1

hairy beggarticks = assay: Test E preemergence; format: in vivo, Bidens pilosa; conditions: for Beggarticks plant response rating: scale 0 to 100 (0 no effect, 100 complete control); for Plant response rating, Beggarticks: scale 0 to 100, 0 no effect, 100 complete control
In short: as §1

soybean = assay: Test E preemergence; format: in vivo, Glycine max; conditions: for Soybean plant response rating: scale 0 to 100 (0 no effect, 100 complete control); for Plant response rating, Soybean: scale 0 to 100, 0 no effect, 100 complete control
In short: as §1

ragweed [2] = assay: Test A postemergence; format: in vivo, Ambrosia elatior; conditions: 0 to 100 scale where 0 is no effect and 100 is complete control
In short: (§2)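 Pre- and postemergence greenhouse screen. Soil: loam + sand. Spray carrier: solvent mixture, non-phytotoxic, with surfactant. Post timing at 1–2 leaves, height 2–10 cm. Readout: visual injury on a 0–100 scale roughly 10 days after application, untreated plants as reference.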

kochia [3] = assay: Test A postemergence; format: in vivo, Kochia scoparia; conditions: 0 to 100 scale where 0 is no effect and 100 is complete control
In short: as §2

Italian ryegrass = assay: Test E preemergence; format: in vivo, Lolium multiflorum; conditions: for Ryegrass, Italian plant response rating: scale 0 to 100 (0 no effect, 100 complete control); for Plant response rating, Ryegrass, Italian: scale 0 to 100, 0 no effect, 100 complete control
In short: as §1

barnyardgrass = assay: Test E preemergence; format: in vivo, Echinochloa crus-galli; conditions: for Barnyardgrass plant response rating: scale 0 to 100 (0 no effect, 100 complete control); for Plant response rating, Barnyardgrass: scale 0 to 100, 0 no effect, 100 complete control
In short: as §1

morningglory = assay: Test E preemergence; format: in vivo, Ipomoea coccinea; conditions: for Morningglory plant response rating: scale 0 to 100 (0 no effect, 100 complete control); for Plant response rating, Morningglory: scale 0 to 100, 0 no effect, 100 complete control
In short: as §1

fall panicum = assay: Test E preemergence; format: in vivo, Panicum dichotomiflorum; conditions: for Panicum, Fall plant response rating: scale 0 to 100 (0 no effect, 100 complete control); for Plant response rating, Panicum, Fall: scale 0 to 100, 0 no effect, 100 complete control
In short: as §1

surinam grass = assay: Test E preemergence; format: in vivo, Brachiaria decumbens; conditions: for Surinam Grass plant response rating: scale 0 to 100 (0 no effect, 100 complete control); for Plant response rating, Surinam Grass: scale 0 to 100, 0 no effect, 100 complete control
In short: as §1

ragweed [4] = assay: Test E preemergence; format: in vivo, Ambrosia elatior; conditions: for Ragweed plant response rating: scale 0 to 100 (0 no effect, 100 complete control); for Plant response rating, Ragweed: scale 0 to 100, 0 no effect, 100 complete control
In short: as §1

sandbur = assay: Test E preemergence; format: in vivo, Cenchrus echinatus; conditions: for Sandbur plant response rating: scale 0 to 100 (0 no effect, 100 complete control); for Plant response rating, Sandbur: scale 0 to 100, 0 no effect, 100 complete control
In short: as §1

goosegrass = assay: Test E preemergence; format: in vivo, Eleusine indica; conditions: for Goosegrass plant response rating: scale 0 to 100 (0 no effect, 100 complete control); for Plant response rating, Goosegrass: scale 0 to 100, 0 no effect, 100 complete control
In short: as §1

giant foxtail = assay: Test E preemergence; format: in vivo, Setaria faberii; conditions: for Foxtail, Giant plant response rating: scale 0 to 100 (0 no effect, 100 complete control); for Plant response rating, Foxtail, Giant: scale 0 to 100, 0 no effect, 100 complete control
In short: as §1

large (Lg) crabgrass = assay: Test E preemergence; format: in vivo, Digitaria sanguinalis; conditions: for Crabgrass, Large plant response rating: scale 0 to 100 (0 no effect, 100 complete control); for Plant response rating, Crabgrass, Large: scale 0 to 100, 0 no effect, 100 complete control
In short: as §1

CCOc1cnn(-c2c(C#N)cccc2Oc2ncc(F)cn2)c1 [Compound 89]
Kochia plant response rating (kochia [1]; 31 g ai/ha): 60
Kochia plant response rating (kochia [1]; 62 g ai/ha): 75
Plant response rating, Kochia (kochia [1]; 125 g ai/ha): 100
Plant response rating, Kochia (kochia [1]; 250 g ai/ha): 100
Nightshade plant response rating (nightshade; 62 g ai/ha): 80
Plant response rating, Nightshade (nightshade; 125 g ai/ha): 100
Plant response rating, Nightshade (nightshade; 250 g ai/ha): 100
Beggarticks plant response rating (hairy beggarticks; 31 g ai/ha, preemergence): 35
Plant response rating, Beggarticks (hairy beggarticks; Preemergence, 62 g ai/ha): 60
Plant response rating, Beggarticks (hairy beggarticks; preemergence, 125 g ai/ha): 80
Plant response rating, Beggarticks (hairy beggarticks; preemergence, 250 g ai/ha): 95
Soybean plant response rating (soybean; 62 g ai/ha): 30
Plant response rating, Soybean (soybean; 125 g ai/ha): 60
Plant response rating, Soybean (soybean; 250 g ai/ha): 80
Plant response rating, Ragweed (ragweed [2]; 125 g ai/ha): 30
Plant response rating, Ragweed (ragweed [2]; 500 g ai/ha): 90
Plant response rating, Kochia (kochia [3]; 125 g ai/ha): 80
Plant response rating, Kochia (kochia [3]; 500 g ai/ha): 90
Ryegrass, Italian plant response rating (Italian ryegrass; 31 g ai/ha): 0
Ryegrass, Italian plant response rating (Italian ryegrass; 62 g ai/ha): 0
Plant response rating, Ryegrass, Italian (Italian ryegrass; 125 g ai/ha): 0
Plant response rating, Ryegrass, Italian (Italian ryegrass; 250 g ai/ha): 0
Barnyardgrass plant response rating (barnyardgrass; 31 g ai/ha, preemergence): 0
Plant response rating, Barnyardgrass (barnyardgrass; Preemergence, 62 g ai/ha): 20
Plant response rating, Barnyardgrass (barnyardgrass; preemergence, 125 g ai/ha): 70
Plant response rating, Barnyardgrass (barnyardgrass; preemergence, 250 g ai/ha): 98
Morningglory plant response rating (morningglory; 31 g ai/ha): 30
Morningglory plant response rating (morningglory; 62 g ai/ha): 65
Plant response rating, Morningglory (morningglory; 125 g ai/ha): 75
Plant response rating, Morningglory (morningglory; 250 g ai/ha): 100
Panicum, Fall plant response rating (fall panicum; 31 g ai/ha): 0
Panicum, Fall plant response rating (fall panicum; 62 g ai/ha): 65
Plant response rating, Panicum, Fall (fall panicum; 125 g ai/ha): 100
Plant response rating, Panicum, Fall (fall panicum; 250 g ai/ha): 100
Surinam Grass plant response rating (surinam grass; 31 g ai/ha): 0
Surinam Grass plant response rating (surinam grass; 62 g ai/ha): 0
Plant response rating, Surinam Grass (surinam grass; 125 g ai/ha): 10
Plant response rating, Surinam Grass (surinam grass; 250 g ai/ha): 75
Ragweed plant response rating (ragweed [4]; 31 g ai/ha): 65
Ragweed plant response rating (ragweed [4]; 62 g ai/ha): 80
Plant response rating, Ragweed (ragweed [4]; 125 g ai/ha): 80
Plant response rating, Ragweed (ragweed [4]; 250 g ai/ha): 90
Sandbur plant response rating (sandbur; 31 g ai/ha): 0
Sandbur plant response rating (sandbur; 62 g ai/ha): 10
Plant response rating, Sandbur (sandbur; 125 g ai/ha): 10
Plant response rating, Sandbur (sandbur; 250 g ai/ha): 20
Goosegrass plant response rating (goosegrass; 31 g ai/ha): 0
Goosegrass plant response rating (goosegrass; 62 g ai/ha): 0
Plant response rating, Goosegrass (goosegrass; 125 g ai/ha): 5
Plant response rating, Goosegrass (goosegrass; 250 g ai/ha): 50
Foxtail, Giant plant response rating (giant foxtail; 31 g ai/ha): 0
Foxtail, Giant plant response rating (giant foxtail; 62 g ai/ha): 20
Plant response rating, Foxtail, Giant (giant foxtail; 125 g ai/ha): 65
Plant response rating, Foxtail, Giant (giant foxtail; 250 g ai/ha): 100
Crabgrass, Large plant response rating (large (Lg) crabgrass; 31 g ai/ha): 35
Crabgrass, Large plant response rating (large (Lg) crabgrass; 62 g ai/ha): 85
Plant response rating, Crabgrass, Large (large (Lg) crabgrass; 125 g ai/ha): 100
Plant response rating, Crabgrass, Large (large (Lg) crabgrass; 250 g ai/ha): 100

FC(F)(F)COc1cnn(-c2ccccc2Oc2ncc(Cl)cn2)c1 [Compound 138, 5-chloro-2-[2-[4-(2,2,2-trifluoroethoxy)-1H-pyrazol-1-yl]phenoxy]pyrimidine]
Kochia plant response rating (kochia [1]; 16 g ai/ha): 60
Kochia plant response rating (kochia [1]; 31 g ai/ha): 75
Kochia plant response rating (kochia [1]; 62 g ai/ha): 90
Plant response rating, Kochia (kochia [1]; 125 g ai/ha): 100
Nightshade plant response rating (nightshade; 16 g ai/ha): 0
Nightshade plant response rating (nightshade; 31 g ai/ha): 0
Nightshade plant response rating (nightshade; 62 g ai/ha): 98
Plant response rating, Nightshade (nightshade; 125 g ai/ha): 90
Beggarticks plant response rating (hairy beggarticks; 16 g ai/ha, preemergence): 0
Beggarticks plant response rating (hairy beggarticks; 31 g ai/ha, preemergence): 0
Beggarticks plant response rating (hairy beggarticks; 62 g ai/ha, preemergence): 0
Plant response rating, Beggarticks (hairy beggarticks; preemergence, 125 g ai/ha): 0
Soybean plant response rating (soybean; 16 g ai/ha): 0
Soybean plant response rating (soybean; 31 g ai/ha): 0
Plant response rating, Soybean (soybean; 125 g ai/ha): 35
Ragweed plant response rating (ragweed [2]; 125 g ai/ha): 30
Plant response rating, Ragweed (ragweed [2]; 500 g ai/ha): 60
Kochia plant response rating (kochia [3]; 125 g ai/ha): 90
Plant response rating, Kochia (kochia [3]; 500 g ai/ha): 100
Ryegrass, Italian plant response rating (Italian ryegrass; 16 g ai/ha): 0
Ryegrass, Italian plant response rating (Italian ryegrass; 31 g ai/ha): 0
Ryegrass, Italian plant response rating (Italian ryegrass; 62 g ai/ha): 0
Plant response rating, Ryegrass, Italian (Italian ryegrass; 125 g ai/ha): 20
Barnyardgrass plant response rating (barnyardgrass; 16 g ai/ha, preemergence): 0
Barnyardgrass plant response rating (barnyardgrass; 31 g ai/ha, preemergence): 0
Barnyardgrass plant response rating (barnyardgrass; 62 g ai/ha, preemergence): 15
Plant response rating, Barnyardgrass (barnyardgrass; preemergence, 125 g ai/ha): 60
Morningglory plant response rating (morningglory; 16 g ai/ha): 0
Morningglory plant response rating (morningglory; 31 g ai/ha): 0
Morningglory plant response rating (morningglory; 62 g ai/ha): 0
Plant response rating, Morningglory (morningglory; 125 g ai/ha): 40
Panicum, Fall plant response rating (fall panicum; 16 g ai/ha): 0
Panicum, Fall plant response rating (fall panicum; 31 g ai/ha): 25
Panicum, Fall plant response rating (fall panicum; 62 g ai/ha): 100
Plant response rating, Panicum, Fall (fall panicum; 125 g ai/ha): 100
Surinam Grass plant response rating (surinam grass; 16 g ai/ha): 0
Surinam Grass plant response rating (surinam grass; 31 g ai/ha): 0
Surinam Grass plant response rating (surinam grass; 62 g ai/ha): 20
Plant response rating, Surinam Grass (surinam grass; 125 g ai/ha): 50
Ragweed plant response rating (ragweed [4]; 16 g ai/ha): 0
Ragweed plant response rating (ragweed [4]; 31 g ai/ha): 0
Ragweed plant response rating (ragweed [4]; 62 g ai/ha): 0
Plant response rating, Ragweed (ragweed [4]; 125 g ai/ha): 0
Sandbur plant response rating (sandbur; 16 g ai/ha): 0
Sandbur plant response rating (sandbur; 31 g ai/ha): 0
Sandbur plant response rating (sandbur; 62 g ai/ha): 10
Plant response rating, Sandbur (sandbur; 125 g ai/ha): 15
Goosegrass plant response rating (goosegrass; 16 g ai/ha): 10
Goosegrass plant response rating (goosegrass; 31 g ai/ha): 30
Goosegrass plant response rating (goosegrass; 62 g ai/ha): 50
Plant response rating, Goosegrass (goosegrass; 125 g ai/ha): 70
Foxtail, Giant plant response rating (giant foxtail; 16 g ai/ha): 0
Foxtail, Giant plant response rating (giant foxtail; 31 g ai/ha): 0
Foxtail, Giant plant response rating (giant foxtail; 62 g ai/ha): 30
Plant response rating, Foxtail, Giant (giant foxtail; 125 g ai/ha): 75
Crabgrass, Large plant response rating (large (Lg) crabgrass; 16 g ai/ha): 0
Crabgrass, Large plant response rating (large (Lg) crabgrass; 31 g ai/ha): 70
Crabgrass, Large plant response rating (large (Lg) crabgrass; 62 g ai/ha): 98
Plant response rating, Crabgrass, Large (large (Lg) crabgrass; 125 g ai/ha): 100
